Values of other authors in patent publication US20080097335A1, “OCULAR IMPLANT DELIVERY ASSEMBLIES” (ALLERGAN, INC., priority 2006, published 2008).

Details: efficacy in vivo; 25 mg dose of hydrocortisone equivalent to 1 mg dose of dexamethasone

C[C@]12CCC(=O)C=C1CC[C@@H]1[C@@H]2[C@@H](O)C[C@@]2(C)[C@H]1CC[C@]2(O)C(=O)CO [hydrocortisone]
potency relative to dexamethasone: approximately twenty-five fold less potent than dexamethasone
